Measured values taken from ChEMBL document CHEMBL5537150, “Synthesis of melampomagnolide B derivatives as potential anti-Triple Negative Breast Cancer agents” (Eur J Med Chem, 2024).

System: MDA-MB-231
Experiment: Antiproliferative activity against human MDA-MB-231 cells assessed as inhibition of cell growth incubated for 72 hrs by MTT assay
Type: functional, cell-based
Conditions: MDA-MB-231, 72 h

Row | Structure (SMILES) | IC50 [µM]
1 | C=C1C(=O)O[C@H]2[C@H]1C(COC(=O)CC1(CC(=O)Oc3ccc(-c4cc(=S)ss4)cc3)CCCC1)C/C=C\CC[C@@]1(C)O[C@@H]21 (some centres not stated) | 2.11
2 | Oc1ccc(-c2cc(=S)ss2)cc1 | > 50
3 | C=C1C(=O)O[C@H]2[C@H]1C(COC(=O)c1ccccc1C(=O)Oc1ccc(-c3cc(=S)ss3)cc1)C/C=C\CC[C@@]1(C)O[C@@H]21 (some centres not stated) | 2.91
4 | C=C1C(=O)O[C@H]2[C@H]1C(COC(=O)CC1(CC(=O)O)CCCCC1)C/C=C\CC[C@@]1(C)O[C@@H]21 (some centres not stated) | 12.8
5 | C=C1C(=O)O[C@H]2[C@H]1C(COC(=O)CCC(=O)Oc1ccc(-c3cc(=S)ss3)cc1)C/C=C\CC[C@@]1(C)O[C@@H]21 (some centres not stated) | 4.34
6 | C=C1C(=O)O[C@H]2[C@H]1C(COC(=O)CC1(CC(=O)Oc3ccc(-c4cc(=S)ss4)cc3)CCCCC1)C/C=C\CC[C@@]1(C)O[C@@H]21 (some centres not stated) | 1.76

Next, values leading:

Row | IC50 [µM] | Structure (SMILES)
7 | > 50 | C=C1C(=O)O[C@H]2[C@H]1C(COC(=O)CCCCC(=O)O)C/C=C\CC[C@@]1(C)O[C@@H]21 (some centres not stated)
8 | 4.96 | C=C1C(=O)O[C@H]2[C@H]1C(COC(=O)c1cc3ccccc3cc1C(=O)O)C/C=C\CC[C@@]1(C)O[C@@H]21 (some centres not stated)
9 | 2.35 | C=C1C(=O)O[C@H]2[C@H]1CC/C(C(=O)OCCOc1ccc(-c3cc(=S)ss3)cc1)=C\CC[C@@]1(C)O[C@@H]21
10 | > 50 | C=C1C(=O)O[C@H]2[C@H]1C(COC(=O)CCCC(=O)O)C/C=C\CC[C@@]1(C)O[C@@H]21 (some centres not stated)
11 | > 50 | C=C1C(=O)O[C@H]2[C@H]1C(COC(=O)c1ccccc1C(=O)O)C/C=C\CC[C@@]1(C)O[C@@H]21 (some centres not stated)
12 | 6.2 | C=C1C(=O)O[C@H]2[C@H]1C(COC(=O)CCCCC(=O)Oc1ccc(-c3cc(=S)ss3)cc1)C/C=C\CC[C@@]1(C)O[C@@H]21 (some centres not stated)
